From patent US11014884B2 (Global Blood Therapeutics, Inc., priority 2018, dated 2021)

Experiments:
[1] = molecular target: Purified hemoglobin (Homo sapiens, UniProt P69905); experiment: Hemoglobin assay: oxygen equilibrium curves with purified hemoglobin, change in p50; type: biochemical; conditions: purified hemoglobin 25 μM, 1 h at 37° C.
Method: Hemoglobin assay: Oxygen equilibrium curves (OECs) were collected as described above. Purified hemoglobin (25 μM) was incubated for 1 h at 37° C. with the indicated compounds (30 μM for compounds 6, 7, 8, and 11; 25 μM for compounds 55 to 67 (Enantiomer 1 and Enantiomer 2)) in 5 ml of TES (2-[[1,3-dihydroxy-2-(hydroxymethyl)propan-2-yl]amino]ethanesulfonic acid)/saline buffer prior to measurements. The samples were then oxygenated with compressed air within the Hemox Analyzer and the OECs were collected during deoxygenation as previously described. p50 values were obtained using a non-linear regression analysis, and Δp50(%) was calculated as described above.

[2] = molecular target: T1, hemoglobin (Homo sapiens, UniProt P69905); experiment: Whole blood assay: oxygen equilibrium curves (Hemox Analyzer), change in p50; type: cell-based; conditions: whole blood 20% Hct (1 mM Hb), compound 1 mM, equimolar to hemoglobin, 1 h at 37° C.
T1 construct: from tissue; host or cells: whole blood (red blood cells)
T1 sequence (P69905 2-142 limits assumed): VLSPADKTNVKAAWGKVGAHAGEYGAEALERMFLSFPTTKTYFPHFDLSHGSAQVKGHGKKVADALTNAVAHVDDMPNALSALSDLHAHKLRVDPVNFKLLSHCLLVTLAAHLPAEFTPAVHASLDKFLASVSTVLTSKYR
T1 sequence (P68871 2-147 partner limits assumed): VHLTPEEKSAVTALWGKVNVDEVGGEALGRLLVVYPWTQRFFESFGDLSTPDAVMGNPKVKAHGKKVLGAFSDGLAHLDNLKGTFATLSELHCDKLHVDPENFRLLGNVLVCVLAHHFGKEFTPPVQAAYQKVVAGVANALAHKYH
Method: Oxygen equilibrium curves (OECs) were collected using a TCS Hemox Analyzer (TCS Scientific Company, New Hope, Pa., USA) to measure changes in the binding affinity of 02 to Hb. Whole blood was incubated for 1 h at 37° C. with the indicated compounds in an equimolar ratio of hemoglobin to compound and diluted into TES (2-[[1,3-dihydroxy-2-(hydroxymethyl)propan-2-yl]amino]ethanesulfonic acid)/saline buffer prior to measurements. For example, for whole blood at 20% hematocrit [Hct], which corresponds to 1 mM Hb, a compound concentration of 1 mM was used (for example, for compounds 1-53), and the incubated sample diluted 50- to 100-fold. The concentration for compound 54 was 1.7 mM and in equimolar ratio to hemoglobin. The diluted samples were then oxygenated with compressed air within the Hemox Analyzer, and the OECs were collected during deoxygenation as previously described (Guarnone et al., Haematologica, 1995, 80, 426-430). p50 (partial pressure of 02 at which Hb is 50% saturated with 02) values were obtained using a non-linear regression analysis. Percentage change in p50 [Δp50(%)] was calculated as follows: Δp50(%)=[(p50 of control)−p50 with compound)/p50 control]×100.

Sequence of Purified hemoglobin (P69905 2-142 limits assumed): as the sequence (P69905 2-142 limits assumed) above
Sequence of Purified hemoglobin (P68871 2-147 partner limits assumed): as the sequence (P68871 2-147 partner limits assumed) above

SMILES | Delta-p50 (%) ([1]; compound 25 μM) | Delta-p50 (%) ([1]; compound 30 μM) | Delta-p50 (%) [2] [%]
CC1CN(C(=O)c2cccc(O)c2C=O)C(COc2cccc(O)c2C=O)CO1 (centres unmarked) [Compound 60, 2-((4-(2-formyl-3-hydroxybenzoyl)-6-methylmorpholin-3-yl)methoxy)-6-hydroxybenzaldehyde] | 67 |  | 
CC1(C)CN(C(=O)c2cccc(O)c2C=O)C(COc2cccc(O)c2C=O)CO1 (stereo in doubt) [Compound 64] | 67 |  | 
CC1(C)C[C@@H](COc2cccc(O)c2C=O)N(C(=O)c2cccc(O)c2C=O)C1 [Compound 65, 2-[[(2S)-1-(2-formyl-3-hydroxybenzoyl)-4,4-dimethylpyrrolidin-2-yl]methoxy]-6-hydroxybenzaldehyde] | 69 |  | 
O=Cc1cccc(C(=O)N2CCC[C@@H](COc3cccc(O)c3C=O)C2)c1O [Compound 58] | 71 |  | 
COc1ccc(C(=O)N2CCCC[C@H]2COc2cccc(O)c2C=O)c(C=O)c1O [Compound 57, (S)-6-(2-((2-formyl-3-hydroxyphenoxy)methyl)piperidine-1-carbonyl)-2-hydroxy-3-methoxybenzaldehyde] | 71 |  | 
O=Cc1c(O)cccc1OCC1CSCCN1C(=O)c1cccc(O)c1C=O (single isomer, unassigned) [67 (Enantiomer 1), 2-((4-(2-formyl-3-hydroxybenozyl)thiomorpholin-3-yl)methoxy)-6-hydroxybenzaldehyde] | 67.2 |  | 
O=Cc1cccc(-c2ncccc2COc2cccc(O)c2C=O)c1 [Compound 8, 3-{3-[(2-formyl-3-hydroxyphenoxy)methyl]pyridin-2-yl}benzaldehyde] |  | 57.3 | 44.8
O=Cc1c(O)cccc1CN1C(=O)CCCC1COc1cccc(O)c1C=O (racemic) [Compound 66, 2-((1-(2-formyl-3-hydroxybenzyl)-6-oxopiperidin-2-yl)methoxy)-6-hydroxybenzaldehyde] | 71 |  | 
O=Cc1cc(-c2ncccc2COc2cccc(O)c2C=O)co1 [Compound 11, 4-{3-[(2-formyl-3-hydroxyphenoxy)methyl]pyridin-2-yl}furan-2-carbaldehyde] |  | 14.12 | 17.2
O=Cc1c(O)cccc1OC[C@@H]1CCCN(C(=O)Oc2cccc(O)c2C=O)C1 [Compound 63, 2-formyl-3-hydroxyphenyl (3R)-3-(2-formyl-3-hydroxyphenoxymethyl)piperidine-1-carboxylate] | 70 |  | 
O=Cc1c(O)cccc1OC[C@H]1CN(C(=O)c2cccc(O)c2C=O)CCO1 [Compound 62, 2-[[(2R)-4-(2-formyl-3-hydroxybenzoyl)morpholin-2-yl]methoxy]-6-hydroxybenzaldehyde] | 69 |  | 
O=Cc1ccccc1OC[C@@H]1CCCCN1C(=O)c1cccc(O)c1C=O [Compound 55, (S)-2-(2-((2-formylphenoxy)methyl)piperidine-1-carbonyl)-6-hydroxybenzaldehyde] | 71 |  | 
O=Cc1cc(C(=O)N2CCC[C@@H](COc3cccc(O)c3C=O)C2)ccc1O [Compound 61, 2-[[(3R)-1-(3-formyl-4-hydroxybenzoyl)piperidin-3-yl]methoxy]-6-hydroxybenzaldehyde] | 71 |  | 
O=Cc1c(O)cccc1OC[C@H]1CN(C(=O)c2cccc(O)c2C=O)CCO1 [Compound 59, 2-[[(2R)-4-(2-formyl-3-hydroxybenzoyl)morpholin-2-yl]methoxy]-6-hydroxybenzaldehyde] | 71 |  | 
O=Cc1ccccc1OC[C@@H]1COCCN1C(=O)c1cccc(O)c1C=O [Compound 56, (S)-2-(3-((2-formylphenoxy)methyl)morpholine-4-carbonyl)-6-hydroxybenzaldehyde] | 70 |  | 
O=Cc1c(O)cccc1OC[C@@H]1CCCCCN1C(=O)c1cccc(O)c1C=O (stereo in doubt) [Compound 38, 2-{2-[(2-formyl-3-hydroxyphenoxy)methyl]azepane-1-carbonyl}-6-hydroxybenzaldehyde] |  |  | 33.8
O=Cc1c(O)cccc1OCC1CSCCN1C(=O)c1cccc(O)c1C=O (single isomer, unassigned) [67 (Enantiomer 2), 2-((4-(2-formyl-3-hydroxybenzoyl)thiomorpholin-3-yl)methoxy)-6-hydroxybenzaldehyde] | 69.3 |  | 
O=Cc1ncc(-c2ncccc2COc2cccc(O)c2C=O)o1 [Compound 14, 5-(3-((2-formyl-3-hydroxyphenoxy)methyl)pyridin-2-yl)oxazole-2-carbaldehyde] |  |  | 17.8
O=Cc1ncccc1C(=O)N1CCCC[C@H]1COc1cccc(O)c1C=O [Compound 25, 3-[(2S)-2-[(2-formyl-3-hydroxyphenoxy)methyl]piperidine-1-carbonyl]pyridine-2-carbaldehyde] |  |  | 4
CCOc1cccc(C(=O)N2CCCC[C@@H]2COc2cccc(O)c2C=O)c1C=O [Compound 50, 2-ethoxy-6-[(2R)-2-[(2-formyl-3-hydroxyphenoxy)methyl]piperidine-1-carbonyl]benzaldehyde] |  |  | 45.3
O=Cc1c(O)cccc1OC[C@@H]1CCCCN1C(=O)c1cccc(F)c1C=O [Compound 47, 2-fluoro-6-[(2S)-2-[(2-formyl-3-hydroxyphenoxy)methyl]piperidine-1-carbonyl]benzaldehyde] |  |  | 70
COc1ccc(C=O)cc1-c1ncccc1COc1cccc(O)c1C=O [Compound 6, 3-{3-[(2-formyl-3-hydroxyphenoxy)methyl]pyridin-2-yl}-4-methoxybenzaldehyde] |  | 60.66 | 16.7
O=Cc1ccccc1C(=O)N1CCC[C@@H](COc2cccc(O)c2C=O)C1 [Compound 26, 2-{[(3R)-1-(2-formylbenzoyl)piperidin-3-yl]methoxy}-6-hydroxybenzaldehyde] |  |  | 56
Cc1cccc(C(=O)N2CCCC[C@H]2COc2cccc(O)c2C=O)c1C=O [Compound 34, 2-[(2S)-2-[(2-formyl-3-hydroxyphenoxy)methyl]piperidine-1-carbonyl]-6-methylbenzaldehyde] |  |  | 78
CC1(C)C[C@@H](COc2cccc(O)c2C=O)N(C(=O)c2ccccc2C=O)C1 [Compound 43, 2-{[(2S)-1-(2-formylbenzoyl)-4,4-dimethylpyrrolidin-2-yl]methoxy}-6-hydroxybenzaldehyde] |  |  | 70
O=Cc1cccc(N2C(=O)CC[C@H]2COc2cccc(O)c2C=O)c1 [Compound 5, 2-{[(2S)-1-(3-formylphenyl)-5-oxopyrrolidin-2-yl]methoxy}-6-hydroxybenzaldehyde] |  |  | 79
O=Cc1nc(-c2ncccc2COc2cccc(O)c2C=O)ccc1O [Compound 19, 3′-[(2-formyl-3-hydroxyphenoxy)methyl]-5-hydroxy-[2,2′-bipyridine]-6-carbaldehyde] |  |  | 11
COc1ncc(C=O)cc1-c1ncccc1COc1cccc(O)c1C=O [Compound 7, 3-[(2-formyl-3-hydroxyphenoxy)methyl]-2′-methoxy-[2,3′-bipyridine]-5′-carbaldehyde] |  | 58.29 | 32.5
